How the values were obtained:
K-Ras G12C [1] = biological target: T1, K-Ras G12C (Homo sapiens, UniProt P01116, G12C); assay: Western blot assay for in cell alkylation of K-Ras G12C (HCC1171 cells); format: cell-based; parameters: endogenous in cells; host or cells: HCC1171; conditions: 18 hours at 37° C., 7 point dose response
Procedure: Western Blot Assay for in Cell Alkylation of K-Ras G12C
HCC1171 cells were maintained in RPMI1640 supplemented with 10% FBS. Cells were plated in a 96-well plate at 20,000 cells/well and the following day compounds were added to the cells. After 18 hours at 37° C., cells were lysed in RIPA buffer (Sigma R0278) with 0.5% SDS and protease/phosphatase inhibitor cocktail. After through mixing to enable complete lysis, the lysates were cleared by centrifugation before 20 μl was transferred from each well and combined with loading buffer and reducing agent. After heating for 10 minutes at 95° C., 15 μl of each sample was loaded onto a 4-20% Tris-Glycine gel and electrophoresed at 110V for 165 minutes in SDS-PAGE running buffer. Gels were transferred to a nitrocellulose membrane, blocked for 1 hour and stained overnight at 4° C. with primary antibody against K-Ras (polyclonal Proteintech 12063-1-AP). The membrane was then washed thoroughly and counterstained with anti-rabbit IRDye 800CW (LI-COR 926-32211) for one hour at room temperature. After final washes, the membrane was imaged on a LI-COR Odyssey CLx at medium resolution. Alkylated K-Ras was visible by an electrophoretic shift from unmodified K-Ras. To quantify this affect, the LICOR software was used to draw a rectangle over alkylated and unalkylated bands for each well and measured the total fluorescent intensity (FI) in each of these bands. The following formula was then used to calculate % alkylation: FI(alkylated)/(FI(alkylated)+FI(unalkylated))*100 for each well.
A 7 point dose response curve was used to determine the IC50 for each compound. Cell alkylation data are presented below in Table 2.
Target sequence in this assay (P01116 1-188 isoform P01116-2 G12C): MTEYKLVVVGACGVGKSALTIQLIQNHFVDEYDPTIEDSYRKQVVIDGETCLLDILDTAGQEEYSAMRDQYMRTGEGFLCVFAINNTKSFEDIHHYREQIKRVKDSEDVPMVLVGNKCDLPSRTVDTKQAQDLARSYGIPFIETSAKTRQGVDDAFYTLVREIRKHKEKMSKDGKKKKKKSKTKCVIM

K-Ras G12C [2] = biological target: T1, K-Ras G12C; assay: K-Ras G12C, SOS1, Raf RBD HTRF assay for inhibition of GTP exchange; format: biochemical; parameters: K-Ras G12C (residues 2-188) and SOS1 (residues 564-1049) had N-terminal 6-His; made in house; host or cells: E. coli; conditions: 18 hours preincubation with K-Ras G12C at room temperature; SOS1-mediated GTP exchange
Procedure: K-Ras G12C, SOS1, Raf RBD Homogeneous Time Resolved Fluorescence (HTRF) Assay for Inhibition of GTP Exchange
After 18 hours at room temperature, the SOS1 GTP exchange factor (1.67 nM during exchange, 1.25 nM final) was added to initiate nucleotide exchange to GTP (200 μM during exchange, 150 μM final). The level of GTP exchange was assessed by addition of a Ras binding domain derived from C-Raf and the HTRF detection antibodies Tb-anti-FLAG and D2-anti-his (Cis-Bio) at 50 nM, 1 nM and 12.5 nM, respectively. After 2 hours, the ratio of 665 nm to 615 nm emission with 320 nm excitation was measured on an Envision plate reader (Perkin Elmer).
The final reaction volume was 20 μl in a ProxiPlate-384F Plus (Perkin Elmer), in buffer containing 20 mM HEPES, 150 mM NaCl, 1 mM MgCl2, 0.1% BSA, 0.03% Tween-20 and 1 mM DTT. […] HTRF data are presented below in Table 2.
Target sequence in this assay (P01116 2-188 isoform P01116-2 G12C): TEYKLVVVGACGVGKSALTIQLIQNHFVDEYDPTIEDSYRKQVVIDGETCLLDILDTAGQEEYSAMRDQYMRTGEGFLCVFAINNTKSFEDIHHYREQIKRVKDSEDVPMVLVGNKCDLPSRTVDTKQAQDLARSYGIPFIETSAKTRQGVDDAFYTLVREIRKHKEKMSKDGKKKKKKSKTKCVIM

Row | SMILES | EC50 (K-Ras G12C [1]) [nM] | IC50 (K-Ras G12C [2]) [nM]
1 | C=C(F)C(=O)N1CCN(c2nc(OC[C@@H]3CCCN3C)nc3c2CCC(c2cc(O)cc4ccccc24)C3)CC1CC#N (mixture of isomers) [Example 61a, 2-(1-(2-fluoroacryloyl)-4-(7-(3-hydroxynaphthalen-1-yl)-2-(((S)-1-methylpyrrolidin-2-yl)methoxy)-5,6,7,8-tetrahydroquinazolin-4-yl)piperazin-2-yl)acetonitrile] | 16 | 38
2 | C=CC(=O)N1CCN(c2nc(OC[C@@H]3CCCN3C)nc3c2C[C@@H](C)[C@H](c2c(C)c(C)cc(N)c2F)C3)[C@@H](C)C1 (single isomer, unassigned) [Example 11b] | 47 | < 10
3 | C=CC(=O)N1CCN(c2nc(OC[C@@H]3C[C@@H](F)CN3C)nc3c2C[C@H](CC)[C@@H](c2c(F)c(N)cc(C)c2C(F)(F)F)C3)[C@@H](C)C1 (single isomer, unassigned) [Example 37b] | 1000 | 2200
4 | C=CC(=O)N1CCN(c2ncnc3c2C[C@@H](C)[C@@H](c2nc(N)cc(C)c2C(F)(F)F)C3)CC1 (single isomer, unassigned) [Example 1a] | 10000 | > 50000
5 | C=C(F)C(=O)N1CCN(c2nc(OC[C@@H]3CCCN3C)nc3c2CC(C)C(c2c(F)c(N)cc(C)c2C(F)(F)F)C3)CC1CC#N (single isomer, unassigned) [Example 34a] | > 3000 | 8900
6 | C=CC(=O)N1CCN(c2nc(OCCCN3CCOCC3)nc3c2CCC(c2cc(O)cc4ccccc24)C3)[C@@H](C)C1 (stereo partly drawn) [Example 53a, 1-((3S)-4-(7-(3-hydroxynaphthalen-1-yl)-2-(3-morpholinopropoxy)-5,6,7,8-tetrahydroquinazolin-4-yl)-3-methylpiperazin-1-yl)prop-2-en-1-one] | 230 | 22
7 | C=CC(=O)N1CCN(c2nc(OC[C@H]3COC(=O)N3C)nc3c2CC[C@H](c2cc(O)cc4ccccc24)C3)[C@@H](C)C1 (single isomer, unassigned) [Example 57d] | 880 | 45
8 | C=CC(=O)N1CCN(c2nc(OC[C@@H]3CCCN3C)nc3c2C[C@H](C)[C@@H](c2c(F)c(N)cc(C)c2C(F)(F)F)C3)[C@@H](C)C1 (single isomer, unassigned) [Example 12a] | 1100 | 610
9 | C=CC(=O)N1CCN(c2nc(OC[C@@H]3CCCN3C)nc3c2C[C@H](C)[C@@H](c2nc(N)cc(C)c2C(F)(F)F)C3)[C@@H](C)C1 (single isomer, unassigned) [Example 21a] | 2300 | 1100
10 | C=CC(=O)N1C[C@H](C)N(c2nc(OC[C@@H]3CCCN3C)nc3c2C[C@H](C)[C@@H](c2cc(O)cc4ccccc24)C3)[C@@H](C)C1 (single isomer, unassigned) [Example 32b] | 920 | 56
11 | C=CC(=O)N1C[C@H](C)N(c2nc(OC[C@@H]3CCCN3C)nc3c2CCC(c2cc(O)cc4ccccc24)C3)[C@@H](C)C1 (stereo partly drawn) [Example 56a, 1-((3S,5S)-4-(7-(3-hydroxynaphthalen-1-yl)-2-(((S)-1-methylpyrrolidin-2-yl)methoxy)-5,6,7,8-tetrahydroquinazolin-4-yl)-3,5-dimethylpiperazin-1-yl)prop-2-en-1-one] | 620 | 73
12 | C#CC[C@H]1CN(c2nc(OC[C@@H]3CCCN3C)nc3c2C[C@H](C)[C@@H](c2cccc4c2CCC4)C3)CCN1C(=O)C=C (single isomer, unassigned) [Example 40b] | 1000 | 560
13 | C=CC(=O)N1CCN(c2ncnc3c2CC[C@H](c2c(C)c(C)cc4[nH]cnc24)C3)CC1 (single isomer, unassigned) [Example 10b] | 1000 | 270
14 | C=CC(=O)N1CCN(c2nc(OC[C@@H]3C[C@@H](F)CN3C)nc3c2C[C@@H](C)[C@H](c2nc(NC)cc(C)c2C(F)(F)F)C3)[C@@H](C)C1 (single isomer, unassigned) [Example 5b] | 180 | 45
15 | C=CC(=O)N1CCN(c2nc(OC[C@@H]3C[C@H](F)CN3C)nc3c2CC[C@H](c2cc(O)cc4ccccc24)C3)[C@@H](C)C1 (single isomer, unassigned) [Example 30a] | 40 | 11
16 | CN1CCC[C@H]1COc1nc2c(c(N3CCN(C(=O)/C=C/CNC45CC(C4)C5)[C@@H](CC#N)C3)n1)CCC(c1cccc3ccccc13)C2 (stereo partly drawn) [Example 48a, 2-((2S)-1-((E)-4-(bicyclo[1.1.1]pentan-1-ylamino)but-2-enoyl)-4-(2-(((S)-1-methylpyrrolidin-2-yl)methoxy)-7-(naphthalen-1-yl)-5,6,7,8-tetrahydroquinazolin-4-yl)piperazin-2-yl)acetonitrile] | 150 | 11
17 | C=CC(=O)N1CCN(c2nc(OC[C@@H]3C[C@@H](F)CN3C)nc3c2C[C@@H](C)[C@H](c2nc(N)cc(C)c2C2CC2)C3)[C@@H](C)C1 (single isomer, unassigned) [Example 24b] | 490 | 21
18 | CN1CCC[C@H]1COc1nc2c(c(N3CCN(C(=O)/C=C/CF)[C@H](CC#N)C3)n1)CC[C@H](c1cc(O)cc3ccccc13)C2 (single isomer, unassigned) [Example 62b] | 2900 | 180
19 | C=CC(=O)N1CCN(c2ncnc3c2CC[C@H](c2nc(N)cc(C)c2C(F)(F)F)C3)CC1 [Example 26a, (S)-1-(4-(7-(6-amino-4-methyl-3-(trifluoromethyl)pyridin-2-yl)-5,6,7,8-tetrahydroquinazolin-4-yl)piperazin-1-yl)prop-2-en-1-one] | 1200 | 180
20 | C=CC(=O)N1CCN(c2ncnc3c2CC[C@@H](c2nc(N)cc4ccccc24)C3)CC1 (single isomer, unassigned) [Example 3a] | 30000 | > 50000
21 | C=CC(=O)N1CCN(c2nc(OC[C@@H]3CCCN3C)nc3c2C[C@H](C)[C@@H](c2nc(N)ccc2C(F)(F)F)C3)[C@@H](C)C1 (single isomer, unassigned) [Example 41a] | 880 | 500
22 | C=CC(=O)N1CCN(c2ncnc3c2CC[C@@H](c2cncc4ccccc24)C3)CC1 (single isomer, unassigned) [Example 44a] | 1000 | > 50000
23 | C=CC(=O)N1CCN(c2ncnc3c2C[C@@H](C)[C@H](c2cc(CO)ccc2C)C3)CC1 (single isomer, unassigned) [Example 4b] | 1300 | 390
24 | C=CC(=O)N1CCN(c2nc(OC[C@@H]3CCCN3C)nc3c2C[C@H](C)[C@@H](c2cccc4c2CCC4)C3)C[C@@H]1CC#N (single isomer, unassigned) [Example 35c] | 46 | 22
25 | C=CC(=O)N1CCN(c2ncnc3c2C[C@@H](C)[C@H](c2c(C)ccc4[nH]ncc24)C3)CC1 (single isomer, unassigned) [Example 15a] | 430 | 68
26 | C=CC(=O)N1CCN(c2nc(OC[C@@H]3CCCN3C)nc3c2CC[C@@H](c2cc(O)cc4ccccc24)C3)[C@@H](C)C1 (single isomer, unassigned) [Example 28a] | 1000 | 130
27 | C=CC(=O)N1CCN(c2nc(OC[C@@H]3CCCN3C)nc3c2C[C@@H](C(C)C)[C@H](c2nc(N)cc(C)c2C(F)(F)F)C3)[C@@H](C)C1 (single isomer, unassigned) [Example 33a] | 51 | < 10
28 | C=C(F)C(=O)N1CCN(c2nc(OC[C@@H]3CCCN3C)nc3c2CC[C@@H](c2cc(O)cc4ccccc24)C3)C[C@@H]1CC#N (single isomer, unassigned) [Example 61e] | 1500 | 90
29 | C=CC(=O)N1CCN(c2ncnc3c2CC[C@H](c2nc(N)ccc2C(F)(F)F)C3)CC1 (single isomer, unassigned) [Example 46b] | 970 | 230

Source: patent US11760744B2, “Fused ring compounds” (Genentech, Inc., priority 2018, dated 2023)
